Consider three molecules from ChEMBL document CHEMBL3763058, “Design, RNA cleavage and antiviral activity of new artificial ribonucleases derived from mono-, di- and tripeptides connected by linkers of different hydrophobicity” (Bioorg Med Chem, 2016).

For orientation: IC50 means the concentration that gives 50% inhibition.

One assay deals with Influenza A virus. Briefly: Antiviral activity against Influenza A virus (A/WSN/33(H1N1)) infected in MDCK cells assessed as viral titer at 0.2 mM compound preincubated with virus for 24 hrs followed by host cell infection measured after 18 hrs by AEC staining based inverted microscopic analysis (reference value: 5.2 log10 FFU/ml). In kind it is functional, A/WSN/1933(H1N1).
Conditions: not given
For the molecule `O=C(/C=C/c1c[nH]cn1)N[C@@H](CCCCNC(=O)OCc1ccccc1Cl)C(=O)NCCCOCCCCOCCCNC(=O)[C@H](CCCCNC(=O)OCc1ccccc1Cl)NC(=O)/C=C/c1c[nH]cn1`, the Activity is recorded as 4.5 log10FFU/ml.

In the case of `NCCCC[C@H](NC(=O)CCCCCNC(=O)[C@@H](N)CCC(=O)O)C(=O)NCCCOCCCCOCCCNC(=O)[C@H](CCCCN)NC(=O)CCCCCNC(=O)[C@@H](N)CCC(=O)O`, the Activity came out at 4.9 log10FFU/ml.

The test system of another assay is Human immunodeficiency virus 1. Briefly: Binding affinity to HIV1 5'-[32P]HIV96 RNA assessed as viral RNA cleavage at 1 mM measured after 3 and 7 hrs relative to control.
Conditions: not given
In the case of `N[C@@H](CO)C(=O)NCCCOCCCCOCCCNC(=O)[C@@H](N)CO`, the Activity is 6%.

Consider `O=C(/C=C/c1c[nH]cn1)N[C@@H](CCCCNC(=O)OCc1ccccc1Cl)C(=O)NCCCOCCCCOCCCNC(=O)[C@H](CCCCNC(=O)OCc1ccccc1Cl)NC(=O)/C=C/c1c[nH]cn1`, for which the Activity amounted to 52%.

As to `NCCCC[C@H](NC(=O)CCCCCNC(=O)[C@@H](N)CCC(=O)O)C(=O)NCCCOCCCCOCCCNC(=O)[C@H](CCCCN)NC(=O)CCCCCNC(=O)[C@@H](N)CCC(=O)O`, the Activity came to 57%.

Another assay concerns Influenza A virus. Briefly: Antiviral activity against Influenza A virus (A/WSN/33(H1N1)) infected in MDCK cells assessed as reduction in viral titer compound preincubated with virus for 24 hrs followed by host cell infection measured after 24 hrs by AEC staining based inverted microscopic analysis. The format is functional, organism-based. The settings on record: A/WSN/1933(H1N1).
Turning to `O=C(/C=C/c1c[nH]cn1)N[C@@H](CCCCNC(=O)OCc1ccccc1Cl)C(=O)NCCCOCCCCOCCCNC(=O)[C@H](CCCCNC(=O)OCc1ccccc1Cl)NC(=O)/C=C/c1c[nH]cn1`, the Activity entry was “Dose-dependent effect”.

In the case of `NCCCC[C@H](NC(=O)CCCCCNC(=O)[C@@H](N)CCC(=O)O)C(=O)NCCCOCCCCOCCCNC(=O)[C@H](CCCCN)NC(=O)CCCCCNC(=O)[C@@H](N)CCC(=O)O`, the Activity entry is “Dose-dependent effect”.

For the next assay, the system named is Influenza A virus. The assay can be described thus: Antiviral activity against Influenza A virus (A/WSN/33(H1N1)) infected in MDCK cells assessed as viral titer at 2 mM compound preincubated with virus for 24 hrs followed by host cell infection measured after 18 hrs by AEC staining based inverted microscopic analysis (reference value: 5.2 log10 FFU/ml). The format is functional, A/WSN/1933(H1N1).
Conditions: not given
For `O=C(/C=C/c1c[nH]cn1)N[C@@H](CCCCNC(=O)OCc1ccccc1Cl)C(=O)NCCCOCCCCOCCCNC(=O)[C@H](CCCCNC(=O)OCc1ccccc1Cl)NC(=O)/C=C/c1c[nH]cn1`, the Activity stood at 4 log10FFU/ml.

Regarding `NCCCC[C@H](NC(=O)CCCCCNC(=O)[C@@H](N)CCC(=O)O)C(=O)NCCCOCCCCOCCCNC(=O)[C@H](CCCCN)NC(=O)CCCCCNC(=O)[C@@H](N)CCC(=O)O`, the Activity was 2.2 log10FFU/ml.

For another assay, the system named is Human immunodeficiency virus 1. Briefly: Binding affinity to HIV1 5'-[32P]HIV96 RNA assessed as time of half viral RNA cleavage of at 1 mM.
Conditions: not given
Regarding `N[C@@H](CO)C(=O)NCCCOCCCCOCCCNC(=O)[C@@H](N)CO`, the TIME was above 24 h.

With `O=C(/C=C/c1c[nH]cn1)N[C@@H](CCCCNC(=O)OCc1ccccc1Cl)C(=O)NCCCOCCCCOCCCNC(=O)[C@H](CCCCNC(=O)OCc1ccccc1Cl)NC(=O)/C=C/c1c[nH]cn1`, the TIME was 7 h.

On to `NCCCC[C@H](NC(=O)CCCCCNC(=O)[C@@H](N)CCC(=O)O)C(=O)NCCCOCCCCOCCCNC(=O)[C@H](CCCCN)NC(=O)CCCCCNC(=O)[C@@H](N)CCC(=O)O`, for which the TIME came to 6 h.

Another assay concerns Influenza A virus. Briefly: Antiviral activity against Influenza A virus (A/WSN/33(H1N1)) infected in MDCK cells assessed as reduction in viral titer at 0.001 to 4 mM compound preincubated with virus for 24 hrs followed by host cell infection measured after 18 hrs by AEC staining based inverted microscopic analysis relative to control. In kind it is functional, A/WSN/1933(H1N1).
Conditions: not given
Turning to `NCCCC[C@H](NC(=O)CCCCCNC(=O)[C@@H](N)CCC(=O)O)C(=O)NCCCOCCCCOCCCNC(=O)[C@H](CCCCN)NC(=O)CCCCCNC(=O)[C@@H](N)CCC(=O)O`, the “fold change (FC)” value amounted to 1.5.

For another assay, the system named is Influenza A virus. The assay can be described thus: Antiviral activity against Influenza A virus (A/WSN/33(H1N1)) infected in MDCK cells assessed as reduction in viral titer at 2 mM compound preincubated with virus for 24 hrs followed by host cell infection measured after 18 hrs by AEC staining based inverted microscopic analysis relative to control.
Conditions: not given
In kind it is functional, A/WSN/1933(H1N1).
Consider `NCCCC[C@H](NC(=O)CCCCCNC(=O)[C@@H](N)CCC(=O)O)C(=O)NCCCOCCCCOCCCNC(=O)[C@H](CCCCN)NC(=O)CCCCCNC(=O)[C@@H](N)CCC(=O)O`, for which the “fold change (FC)” value is 3.

The subject of a further assay is Human immunodeficiency virus 1. Briefly: Binding affinity to HIV1 5'-[32P]ON21 RNA assessed as viral RNA cleavage at 1 mM measured after 3 and 7 hrs relative to control.
Conditions: not given
As for `N[C@@H](CO)C(=O)NCCCOCCCCOCCCNC(=O)[C@@H](N)CO`, the Activity is 3%.

For `O=C(/C=C/c1c[nH]cn1)N[C@@H](CCCCNC(=O)OCc1ccccc1Cl)C(=O)NCCCOCCCCOCCCNC(=O)[C@H](CCCCNC(=O)OCc1ccccc1Cl)NC(=O)/C=C/c1c[nH]cn1`, the Activity was found to be 42%.

Regarding `NCCCC[C@H](NC(=O)CCCCCNC(=O)[C@@H](N)CCC(=O)O)C(=O)NCCCOCCCCOCCCNC(=O)[C@H](CCCCN)NC(=O)CCCCCNC(=O)[C@@H](N)CCC(=O)O`, the Activity is 33%.

The subject of the next assay is Human immunodeficiency virus 1. Briefly: Binding affinity to HIV1 5'-[32P]HIV96 RNA assessed as viral RNA cleavage rate constant at 1 mM.
Conditions: not given
Consider `N[C@@H](CO)C(=O)NCCCOCCCCOCCCNC(=O)[C@@H](N)CO`, for which the K was found to be 0.002 h⁻¹.

As for `O=C(/C=C/c1c[nH]cn1)N[C@@H](CCCCNC(=O)OCc1ccccc1Cl)C(=O)NCCCOCCCCOCCCNC(=O)[C@H](CCCCNC(=O)OCc1ccccc1Cl)NC(=O)/C=C/c1c[nH]cn1`, the K amounted to 0.11 h⁻¹.

With `NCCCC[C@H](NC(=O)CCCCCNC(=O)[C@@H](N)CCC(=O)O)C(=O)NCCCOCCCCOCCCNC(=O)[C@H](CCCCN)NC(=O)CCCCCNC(=O)[C@@H](N)CCC(=O)O`, the K was 0.082 h⁻¹.

The next assay relates to MDCK. Briefly: Cytotoxicity against MDCK cells assessed as reduction in cell viability after 24 hrs by MTT assay. In kind it is cell-based. The conditions noted are these: Canis lupus familiaris. For orientation: Formazan colour is commonly taken as a measure of viable cells.
With `O=C(/C=C/c1c[nH]cn1)N[C@@H](CCCCNC(=O)OCc1ccccc1Cl)C(=O)NCCCOCCCCOCCCNC(=O)[C@H](CCCCNC(=O)OCc1ccccc1Cl)NC(=O)/C=C/c1c[nH]cn1`, the IC50 worked out at 700 µM.

In the case of `NCCCC[C@H](NC(=O)CCCCCNC(=O)[C@@H](N)CCC(=O)O)C(=O)NCCCOCCCCOCCCNC(=O)[C@H](CCCCN)NC(=O)CCCCCNC(=O)[C@@H](N)CCC(=O)O`, the IC50 stood at 200 µM.
